Experimental data published in PubChem BioAssay AID330 (DTP/NCI, 2004).
Values joined by “and” are separate entries in the source; they are usually repeats but may differ in a detail not shown here. Equal values may be shown once. Inconclusive results and toxic doses are left out. Peptide text beside a SMILES is read from it. * marks the point of attachment. Cbz = O=C(OCc1ccccc1)*

System: P388 leukemia ip, CD2F1 mice, survival T/C
Assay: NCI In Vivo Anticancer Drug Screen. Data for tumor model P388 Leukemia (intraperitoneal) in CD2F1 (CDF1) mice
Conditions: endpoint: median survival time, higher = longer survival
Summary of the method: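 Mice carrying the transplanted tumor received test compound or vehicle. Survival was recorded in each group, and the value is the treated-group measurement divided by that of the vehicle-treated control group.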

[1] = dose: 50.0 mg/kg/injection, schedule: Q01DX009 (ip), vehicle: saline with Tween-80
[2] = dose: 100.0 mg/kg/injection, schedule: Q01DX009 (ip), vehicle: saline with Tween-80
[3] = dose: 200.0 mg/kg/injection, schedule: Q01DX009 (ip), vehicle: saline with Tween-80
[4] = dose: 100.0 mg/kg/injection, schedule: Q04DX002 (ip), vehicle: Klucel (hydroxypropylcellulose) (HPC)
[5] = dose: 60.0 mg/kg/injection, schedule: Q01DX005 (ip), vehicle: saline with Tween-80
[6] = dose: 120.0 mg/kg/injection, schedule: Q01DX005 (ip), vehicle: saline with Tween-80
[7] = dose: 12.5 mg/kg/injection, schedule: Q01DX009 (ip), vehicle: Klucel (hydroxypropylcellulose) (HPC)
[8] = dose: 50.0 mg/kg/injection, schedule: Q01DX005 (ip), vehicle: saline with Tween-80
[9] = dose: 100.0 mg/kg/injection, schedule: Q01DX005 (ip), vehicle: saline with Tween-80
[10] = dose: 200.0 mg/kg/injection, schedule: Q01DX005 (ip), vehicle: saline with Tween-80
[11] = dose: 25.0 mg/kg/injection, schedule: Q01DX005 (ip), vehicle: saline with Tween-80

NC(C(=O)O)C(CC(=O)O)c1ccccc1 (stereo not given)
T/C [1]: 88 % of control | T/C (dose: 50.0 mg/kg/injection, schedule: Q01DX009 (ip), vehicle: suspension in saline): 96 % of control | T/C [2]: 94 % of control | T/C (dose: 100.0 mg/kg/injection, schedule: Q01DX009 (ip), vehicle: suspension in saline): 89 % of control | T/C (dose: 100.0 mg/kg/injection, schedule: Q04DX003 (ip), vehicle: saline with Tween-80): 100 % of control | T/C [3]: 95 % of control | T/C (dose: 200.0 mg/kg/injection, schedule: Q01DX009 (ip), vehicle: suspension in saline): 88 % of control | T/C (dose: 200.0 mg/kg/injection, schedule: Q04DX003 (ip), vehicle: saline with Tween-80): 108 % of control | T/C (dose: 400.0 mg/kg/injection, schedule: Q04DX003 (ip), vehicle: saline with Tween-80): 97 % of control

CC1=CCC2C([C@H]1OC(=O)c1ccc([N+](=O)[O-])cc1)C(C)(C)CCC[C@]2(C)O (stereo not given in full)
T/C [4]: 98 % of control | T/C (dose: 200.0 mg/kg/injection, schedule: Q04DX002 (ip), vehicle: Klucel (hydroxypropylcellulose) (HPC)): 89 % of control | T/C (dose: 400.0 mg/kg/injection, schedule: Q04DX002 (ip), vehicle: Klucel (hydroxypropylcellulose) (HPC)): 90 % of control

Cc1cc(=O)n2c(-c3ccc(Cl)cc3)csc2n1
T/C (dose: 25.0 mg/kg/injection, schedule: Q04DX002 (ip), vehicle: Klucel (hydroxypropylcellulose) (HPC)): 90 % of control | T/C (dose: 50.0 mg/kg/injection, schedule: Q04DX002 (ip), vehicle: Klucel (hydroxypropylcellulose) (HPC)): 101 % of control | T/C [4]: 102 % of control

O=C(NCc1ccco1)C(=O)N/N=C/c1ccccc1O
T/C [1]: 89 % of control | T/C [2]: 92 % of control | T/C [3]: 92 % of control

CC1(C)OC1(C)C
T/C [1]: 100 % of control | T/C [2]: 104 % of control | T/C [3]: 102 % of control | T/C (dose: 400.0 mg/kg/injection, schedule: Q01DX009 (ip), vehicle: saline with Tween-80): 111 % of control

COc1ccc2[nH]c(C)c(CN(C(C)=O)C(C)=O)c(=O)c2c1
T/C [5]: 103 % of control | T/C [6]: 112 % of control | T/C (dose: 240.0 mg/kg/injection, schedule: Q01DX005 (ip), vehicle: saline with Tween-80): 86 % of control

Cc1c(-c2ccccc2)n(O)c(-c2ccc([N+](=O)[O-])cc2)[n+]1[O-]
T/C [1]: 99 % of control | T/C [2]: 94 % of control | T/C [3]: 94 % of control

Oc1cc(-c2cc3cccc[n+]3o2)cc(O)c1O
T/C [7]: 100 % of control | T/C (dose: 25.0 mg/kg/injection, schedule: Q01DX009 (ip), vehicle: Klucel (hydroxypropylcellulose) (HPC)): 99 % of control | T/C (dose: 50.0 mg/kg/injection, schedule: Q01DX009 (ip), vehicle: Klucel (hydroxypropylcellulose) (HPC)): 100 % of control

Cc1cc(=O)c2c(ccc3c(=O)cc(C)[nH]c32)[nH]1
T/C (dose: 30.0 mg/kg/injection, schedule: Q01DX005 (ip), vehicle: saline with Tween-80): 93 % of control | T/C [5]: 91 % of control | T/C [6]: 100 % of control and 91 % of control

N#CCCn1nc(SCc2ccccc2)c(=S)[nH]c1=O
T/C [8]: 95 % of control | T/C [9]: 98 % of control | T/C [10]: 100 % of control

CCC1(c2ccccn2)OCC(CBr)O1 (stereo not given)
T/C [8]: 93 % of control | T/C [9]: 100 % of control | T/C [10]: 93 % of control

CC(C)CC(NC(=O)C(Cc1ccccc1)NC(=O)OCc1ccccc1)C(=O)O (stereo not drawn) (Cbz-Phe-Leu-OH; configuration not given here)
T/C [8]: 108 % of control | T/C [9]: 105 % of control

CC=C(C)c1ccccc1 (mixture of isomers)
T/C (dose: 25.0 mg/kg/injection, schedule: Q01DX009 (ip), vehicle: saline with Tween-80): 104 % of control | T/C [1]: 100 % of control | T/C [2]: 103 % of control | T/C [3]: 105 % of control

BrCC[P+](c1ccccc1)(c1ccccc1)c1ccccc1
T/C (dose: 1.56 mg/kg/injection, schedule: Q01DX009 (ip), vehicle: water): 115 % of control | T/C (dose: 3.0 mg/kg/injection, schedule: Q01DX009 (ip), vehicle: water): 120 % of control | T/C (dose: 6.25 mg/kg/injection, schedule: Q01DX009 (ip), vehicle: water): 118 % of control

O=[N+]([O-])c1ccc(Sc2c3ccccc3nc3ccccc23)cn1
T/C [11]: 104 % of control | T/C [8]: 109 % of control | T/C [9]: 104 % of control | T/C [10]: 101 % of control

CCN(CC)P(=O)(N1CC1C)N1CC1C (stereo not given)
T/C (dose: 33.0 mg/kg/injection, schedule: Q04DX003 (ip), vehicle: saline): 109 % of control | T/C (dose: 75.0 mg/kg/injection, schedule: Q04DX003 (ip), vehicle: saline): 150 % of control

O=C(OCC(O)CO)c1c(Cl)c(Cl)c(Cl)c(Cl)c1-c1c2cc(I)c(=O)c(I)c-2oc2c(I)c(O)c(I)cc12 (stereo not given)
T/C (dose: 60.0 mg/kg/injection, schedule: Q01DX005 (ip), vehicle: saline): 94 % of control | T/C (dose: 120.0 mg/kg/injection, schedule: Q01DX005 (ip), vehicle: saline): 100 % of control | T/C (dose: 240.0 mg/kg/injection, schedule: Q01DX005 (ip), vehicle: saline): 102 % of control

Nc1nsc(Cl)n1
T/C (dose: 25.0 mg/kg/injection, schedule: Q01DX001 (ip), vehicle: saline with Tween-80): 97 % of control | T/C (dose: 50.0 mg/kg/injection, schedule: Q01DX001 (ip), vehicle: saline with Tween-80): 106 % of control | T/C (dose: 100.0 mg/kg/injection, schedule: Q01DX001 (ip), vehicle: saline with Tween-80): 99 % of control

CCC1=CC2CN3CCc4c([nH]c5ccccc45)C(C(=O)OC)(C2)C13 (stereo not given)
T/C [8]: 105 % of control | T/C [9]: 108 % of control

N#CC(C#N)=NNc1ccc([N+](=O)[O-])cc1Cl
T/C (dose: 6.25 mg/kg/injection, schedule: Q01DX009 (ip), vehicle: Klucel (hydroxypropylcellulose) (HPC)): 103 % of control | T/C [7]: 103 % of control

C=COS(=O)O
T/C (dose: 3.12 mg/kg/injection, schedule: Q01DX009 (ip), vehicle: saline): 104 % of control | T/C (dose: 6.25 mg/kg/injection, schedule: Q01DX009 (ip), vehicle: saline): 104 % of control | T/C (dose: 12.5 mg/kg/injection, schedule: Q01DX009 (ip), vehicle: saline): 105 % of control

NC(=O)N=C(N)N
T/C (dose: 50.0 mg/kg/injection, schedule: Q01DX005 (ip), vehicle: Klucel (hydroxypropylcellulose) (HPC)): 106 % of control | T/C (dose: 100.0 mg/kg/injection, schedule: Q01DX005 (ip), vehicle: Klucel (hydroxypropylcellulose) (HPC)): 98 % of control | T/C (dose: 200.0 mg/kg/injection, schedule: Q01DX005 (ip), vehicle: Klucel (hydroxypropylcellulose) (HPC)): 101 % of control and 106 % of control

O=C1CN(CCN2CCCCC2)CC(=O)N2Cc3ccccc3CN12
T/C (dose: 12.5 mg/kg/injection, schedule: Q01DX005 (ip), vehicle: saline with Tween-80): 102 % of control | T/C [11]: 104 % of control | T/C [8]: 100 % of control and 102 % of control

CCP(C)(=O)c1ccccc1 (stereo not given)
T/C (dose: 100.0 mg/kg/injection, schedule: Q04DX002 (ip), vehicle: saline with Tween-80): 96 % of control | T/C (dose: 200.0 mg/kg/injection, schedule: Q04DX002 (ip), vehicle: saline with Tween-80): 97 % of control | T/C (dose: 400.0 mg/kg/injection, schedule: Q04DX002 (ip), vehicle: saline with Tween-80): 100 % of control

COC(=O)NN(C(=O)OC)C1CCCC2C1c1ccc3ccccc3c1N(C(=O)OC)N2C(=O)OC (stereo not given)
T/C (dose: 60.0 mg/kg/injection, schedule: Q01DX005 (ip), vehicle: Klucel (hydroxypropylcellulose) (HPC)): 107 % of control | T/C (dose: 120.0 mg/kg/injection, schedule: Q01DX005 (ip), vehicle: Klucel (hydroxypropylcellulose) (HPC)): 100 % of control | T/C (dose: 240.0 mg/kg/injection, schedule: Q01DX005 (ip), vehicle: Klucel (hydroxypropylcellulose) (HPC)): 109 % of control

O=C1C(NCC(O)CO)=C(N2CC2)C(=O)C(NCC(O)CO)=C1N1CC1 (stereo not given)
T/C (dose: 1.5 mg/kg/injection, schedule: Q01DX009 (ip), vehicle: saline): 198 % of control | T/C (dose: 3.0 mg/kg/injection, schedule: Q01DX009 (ip), vehicle: saline): 227 % of control | T/C (dose: 4.0 mg/kg/injection, schedule: Q01DX009 (ip), vehicle: saline): 270 % of control

O=C1N(Cl)C(=O)C(c2ccc(Cl)cc2)(c2ccc(Cl)cc2)N1Cl
T/C (dose: 12.5 mg/kg/injection, schedule: Q01DX009 (ip), vehicle: saline with Tween-80): 118 % of control | T/C [1]: 150 % of control
